Measured values published in paper PMC2362861, “Potent interaction of flavopiridol with MRP1” (British Journal of Cancer, 1999).
Like-named read-outs stand apart in the source and are kept apart here.

Tests used:
GLC4 cells = assay: Steady-state cellular [3H]daunorubicin accumulation in GLC4 cells; type: cell-based, human; settings: GLC4; (iso)flavonoid 50 µM (μM); 0.5 M DNR, 75 min
[1] = during continuous infusion, ref Senderowicz et al, 1998, Stinson et al; cited from earlier work
GLC4/ADR = assay: Growth inhibition assay, GLC4/ADR; type: cell-based, human; settings: for IC50: Homo sapiens, GLC-4/ADR
GLC4 = assay: Growth inhibition assay, GLC4; type: cell-based, human; settings: for IC50: Homo sapiens
MRP1 ATPase activity = biological target: T1, MRP1 ATPase activity (Homo sapiens, UniProt P33527); assay: ATPase activity of GLC4/ADR plasma membranes (colourimetric inorganic phosphate); type: biochemical
T1 construct: plasma membrane vesicles prepared from the MRP1 overexpressing cell line GLC4/ADR; endogenous in cells; host or cells: GLC4/ADR (adriamycin-selected human small-cell lung cancer subline); plasma membrane vesicles
T1 sequence (P33527 whole entry): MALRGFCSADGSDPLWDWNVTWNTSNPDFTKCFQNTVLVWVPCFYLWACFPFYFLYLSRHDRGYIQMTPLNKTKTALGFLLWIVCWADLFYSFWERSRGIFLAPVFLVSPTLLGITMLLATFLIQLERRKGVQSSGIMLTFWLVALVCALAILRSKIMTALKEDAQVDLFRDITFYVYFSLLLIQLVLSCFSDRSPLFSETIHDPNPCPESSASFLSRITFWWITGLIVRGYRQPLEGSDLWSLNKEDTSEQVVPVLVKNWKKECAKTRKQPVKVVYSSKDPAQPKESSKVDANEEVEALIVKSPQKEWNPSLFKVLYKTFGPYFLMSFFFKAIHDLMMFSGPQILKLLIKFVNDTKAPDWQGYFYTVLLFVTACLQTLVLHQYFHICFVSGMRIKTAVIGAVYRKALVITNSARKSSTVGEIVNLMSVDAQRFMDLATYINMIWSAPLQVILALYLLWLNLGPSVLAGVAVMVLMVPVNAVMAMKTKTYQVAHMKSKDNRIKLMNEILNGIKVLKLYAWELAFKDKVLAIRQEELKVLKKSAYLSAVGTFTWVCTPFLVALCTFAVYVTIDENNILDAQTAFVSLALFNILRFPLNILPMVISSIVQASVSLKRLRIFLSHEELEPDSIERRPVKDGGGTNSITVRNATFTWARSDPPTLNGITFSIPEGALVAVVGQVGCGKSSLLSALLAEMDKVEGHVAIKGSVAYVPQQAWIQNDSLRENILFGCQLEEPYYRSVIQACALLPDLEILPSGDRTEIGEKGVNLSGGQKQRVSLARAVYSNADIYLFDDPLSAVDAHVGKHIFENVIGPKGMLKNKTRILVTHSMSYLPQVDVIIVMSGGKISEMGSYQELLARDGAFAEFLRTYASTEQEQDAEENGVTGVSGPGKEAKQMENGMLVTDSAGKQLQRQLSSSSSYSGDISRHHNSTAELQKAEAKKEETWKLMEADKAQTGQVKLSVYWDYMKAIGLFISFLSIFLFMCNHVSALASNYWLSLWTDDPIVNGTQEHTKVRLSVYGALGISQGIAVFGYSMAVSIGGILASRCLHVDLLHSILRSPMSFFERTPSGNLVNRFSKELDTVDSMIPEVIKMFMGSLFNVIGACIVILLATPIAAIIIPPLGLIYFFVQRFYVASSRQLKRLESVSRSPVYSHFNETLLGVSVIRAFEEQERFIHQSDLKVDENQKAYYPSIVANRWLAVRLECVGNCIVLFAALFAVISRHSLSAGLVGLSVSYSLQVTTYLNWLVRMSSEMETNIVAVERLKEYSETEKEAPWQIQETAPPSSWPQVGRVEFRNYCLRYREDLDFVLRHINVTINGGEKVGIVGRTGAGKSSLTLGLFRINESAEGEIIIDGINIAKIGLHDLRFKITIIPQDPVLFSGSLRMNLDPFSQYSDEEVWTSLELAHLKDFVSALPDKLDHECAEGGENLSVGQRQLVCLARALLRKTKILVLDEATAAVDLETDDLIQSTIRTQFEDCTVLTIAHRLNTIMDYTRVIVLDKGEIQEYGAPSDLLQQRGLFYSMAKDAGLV
From the text: One form of cellular resistance, directed against a wide spectrum of natural agents, is referred to as multidrug resistance (MDR). […] The ATP-dependent transport of anticancer drugs out of tumour cells that express MDR proteins may at least theoretically lead to impaired treatment outcome of patients. […] 1-Chloro-2,4-dinitrobenzene (CDNB) was from Sigma (St Louis, MO, USA). […] The isoflavonoid genis- tein was from ICN Biomedicals (Zoetermeer, The Netherlands). […] The (iso)flavonoids were dissolved as a stock solution of 40 mM in dimethyl sulphoxide (DMSO; Across Chimica, Belgium) and stored at -20C. Before experiments, 1:1 dilutions were made in ethanol, followed by a dilution in ethanol/water (1: 3; v/v) to the appropriate concentrations. The maximal concentration of DMSO and ethanol, which was also added to the controls, was 0.5% (v/v). Membrane filters OE67 were from Schleicher and Schuell (Dassel, Germany). Doxorubicin hydrochloride was from Laboratoire Roger Bellon (France). […] S1(MRP1) cells were cultured in the presence of G418 until 2-10 days before experiments. […] Cells were harvested by centrifugation (275 g, 5 min) and washed twice in phosphate-buffered saline. Subsequently, the cells were incubated in 100 mM potassium chloride (KCl), 5 mM magnesium chloride (MgCl2 ), 1 mM phenylmethylsulphonyl fluoride and 50 mM HEPES-KOH (pH 7.4) for 1 h at 0C, in order to allow the cells to swell. Then the cells were ultrasonicated at 20% of the maximum power of an MSE sonicator (Soniprep 150) for three bursts of 15 s. The suspension was centrifuged at 1500 g for 10 min. […] After centrifugation at 100 000 g for 60 min the interface was removed and washed in 100 mM KC1-50 mM HEPES-5 mM MgCl2 buffer (pH 7.4). The final membrane preparations were stored at -80C at a protein concentration of ~ 4 mg ml-1 . […] Vesicles were incubated in KCl-HEPES buffer (pH 7.4) at 37C (protein concentration ~ 0.25 mg ml-1 ), in the presence of 10 mM MgCl2 with or without 1 mM ATP and tritium-labelled DNP-SG. The reaction was stopped by adding ice-cold KCl-HEPES buffer. After rapid filtration, the filters were washed twice with KCl-HEPES buffer. The radioactivity on the filters was measured by liquid scintillation counting. […] Plasma membranes were incubated for 1 h in KCl-HEPES buffer (pH 7.4) at 37C, in the presence of 1 mM EGTA, 1 mM sodium azide and 0.1 mM ouabain, with or without 1 mM ATP. […] Plasma membranes from GLC4 cells (black bars) and GLC4 /ADR cells (white bars) were incubated with 10 nM DNP-SG in the absence or presence of the MIB6 antibody (MIB6) (10 g ml-1 ) or an MRP1 control antibody (10 g ml-1 ). […] In short, anti-MRP1 antibodies were tested for their capacity to inhibit DNP-SG transport into GLC4 /ADR inside-out plasma membrane vesicles.

SW1573 = assay: Growth inhibition assay, SW1573; type: cell-based; settings: Homo sapiens, SW1573, 72 h, read-out: IC50 value
S1(1.1) = assay: Growth inhibition assay, S1(1.1); type: cell-based; settings: Homo sapiens, 72 h, read-out: IC50 value
S1(MRP) = assay: Growth inhibition assay, S1(MRP); type: cell-based, human
GLC4/ADR cells = assay: Steady-state cellular [3H]daunorubicin accumulation in GLC4/ADR cells; type: cell-based, human
cyclin-dependent kinases = system: cyclin-dependent kinases; parameters: method as in Losiewicz et al, 1996; settings: ref Losiewicz et al, 1996; cited from earlier work

Compound: CN1CC[C@H](c2c(O)cc(O)c3c(=O)cc(-c4ccccc4Cl)oc23)[C@H](O)C1 [Flavopiridol, (-)cis-5,7-dihydroxy-2-(2-chlorophenyl)-8[4-(3-hydroxy-1-methyl)-piperidinyl]-4H-benzopyran-4-one]
- Accumulation of daunorubicin, mean percentages of control (set at 100%) (GLC4 cells): 104%
- Steady-state plasma concentrations in humans [1]: 200 to 300 nM
- Resistance compared to GLC4 (GLC4/ADR; GLC4/ADR vs GLC4): 2.8 times
- IC50 (GLC4/ADR; 72 h, read-out: IC50 value): 128 nM
- IC50 (GLC4/ADR; read-out: IC50 value): > 1000 nM
- IC50 (GLC4/ADR; read-out: IC50 values): > 1000 nM
- IC50 (GLC4; GLC4, 72 h, read-out: IC50 value): 45 nM
- IC50 (GLC4; GLC4, read-out: IC50 value): > 1000 nM
- IC50 (GLC4; GLC4, read-out: IC50 values): > 1000 nM
- Growth inhibitory potency compared to genistein and kaempferol (GLC4; Table 3, all cell lines): about 100 fold
- Concentrations at which ATPase activity of GLC4/ADR membranes was significantly induced (MRP1 ATPase activity; GLC4/ADR membranes, lowest effective concentration and higher): ≥ 1 µM
- Effect of GSH on (iso)flavonoid-induced MRP1 ATPase activity (MRP1 ATPase activity; GSH 0.5 mM or 5 mM, data not shown): no synergistic stimulation
- IC50 (SW1573): 85 nM
- IC50 (S1(1.1)): 93 nM
- IC50 (S1(MRP); Homo sapiens, S1(MRP), 72 h, read-out: IC50 value): 130 nM
- Resistance compared to SW1573 (S1(MRP); S1(MRP) vs SW1573): 1.5 times
- Effect on accumulation of DNR in GLC4/ADR cells (GLC4/ADR cells; 50 µM (μM)): increased the accumulation of DNR
- Lowest concentration tested, giving a significant increase of DNR accumulation (GLC4/ADR cells; GLC4/ADR): 100 nM
- Difference of DNR accumulation from control (P < 0.05) (GLC4/ADR cells; GLC4/ADR, all tested flavopiridol concentrations (0.1, 1, 5), Figure 6): gave a significant difference
- Concentrations at which daunorubicin accumulation is affected (GLC4/ADR cells; GLC4/ADR, only tested compound active in this range): below 1 μM
- Potency as inhibitor of cyclin-dependent kinases compared to genistein and quercetin (cyclin-dependent kinases): 250 fold
